Laboratory results reported in patent US11034661B2, “Substituted N′-hydroxycarbamimidoyl-1,2,5-oxadiazole compounds as indoleamine 2,3-dioxygenase IDO inhibitors” (Merck Sharp & Dohme Corp., priority 2017, dated 2021).

How the values were obtained:
[1] = biological target: HIS-tagged IDO1 protein (Homo sapiens (Human), UniProt P14902); test: IDO1 Enzyme Assay; type: biochemical; conditions: recombinant IDO1 40 nM, tryptophan substrate, fluorescence readout
Method: Biological Assays IDO1 Enzyme Assay
(§1) Compounds to be tested were serially diluted in ten 3-fold steps in DMSO starting from 10 mM DMSO stocks. Compound dilutions or DMSO alone were then dispensed from the dilution plate into a Greiner black 384-well assay plate (catalog #781086) using an Echo 555 acoustic liquid handler (Labcyte).
HIS-tagged IDO1 protein was recombinantly expressed in Escherichia coli using ZYP5052 autoinduction media supplemented with 500 μM delta aminolevulinic acid for 48 hours at 16 degrees Celsius. IDO1 protein was purified using Ni^2+-affinity resin and size exclusion chromatography. Purified protein was then diluted in assay buffer (50 mM Tris pH 7.0, 1% glycerol, 20 μM methylene blue, 0.05% Tween-20, 20 mM sodium ascorbate, 100 units/mL catalase to obtain a final IDO1 concentration of 40 nM. IDO1 solution […] or buffer alone […] was dispensed to wells of the assay plate using a BioRAPTR liquid dispenser (Beckman Coulter). Assay plates containing compound and IDO1 enzyme were incubated at room temperature for 30 minutes. Afterwards, 10 μL of 400 μM tryptophan in assay buffer were added to each well of the assay plate using a BioRAPTR liquid dispenser. Plates were incubated at room temperature for 60 minutes and reactions were quenched by addition of 10 μL of 0.5 M methyl isonipecotate in dimethyl sulfoxide. Plates were sealed and incubated at 37 degrees Celsius for 4 hours or 50 degrees Celsius for 2 hours. The plates are allowed to cool and then centrifuged for 1 minute at 1000×g. The resulting fluorescence was measured in an Envision plate reader (Perkin Elmer) with a 400/25 nm excitation filter and an 510/20 nm emission filter.
Potencies were calculated by linear least squares fit to the four parameter logistic IC50 equation.

[2] = biological target: IDO1 in Hela cells stimulated with IFNγ (Homo sapiens (Human), UniProt P14902); test: IDO1 Cellular Assay in Hela Cells Stimulated with IFNγ; type: cell-based; conditions: IFNγ 100 ng/mL, about 48 hours, fluorescence readout, read-out: IDO1 HELA Cell Assay, IC50
IDO1 in Hela cells stimulated with IFNγ, sequence (P14902 whole entry): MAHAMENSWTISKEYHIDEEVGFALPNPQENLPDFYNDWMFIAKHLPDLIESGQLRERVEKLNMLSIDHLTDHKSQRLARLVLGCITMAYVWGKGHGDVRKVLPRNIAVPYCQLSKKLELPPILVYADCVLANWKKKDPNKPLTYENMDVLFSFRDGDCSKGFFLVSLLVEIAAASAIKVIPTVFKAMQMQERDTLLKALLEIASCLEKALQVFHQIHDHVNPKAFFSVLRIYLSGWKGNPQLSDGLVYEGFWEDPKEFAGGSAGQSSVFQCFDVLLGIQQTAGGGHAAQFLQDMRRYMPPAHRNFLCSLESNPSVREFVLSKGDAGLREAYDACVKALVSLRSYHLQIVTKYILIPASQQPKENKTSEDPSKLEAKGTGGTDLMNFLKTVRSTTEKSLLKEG
Method: IDO1 Cellular Assay in Hela Cells Stimulated with IFNγ
Hela cells were cultured in complete Hela culture medium (90% EMEM, 10% heat-inactivated fetal bovine serum) and expanded to about 1×10^9 cells. The cells were then collected and frozen down at 10×10^6 cells/vial in 1 mL frozen medium (90% complete Hela culture medium, 10% DMSO)
as §1, with “stocks in Echo low volume plate(s).” for “stocks.”, “plate(s)” for “plate”, “into” for “into a”, “#781086, 50 nL/well)” for “#781086)”, “550” for “555”
Frozen Hela cells were thawed and transferred into Hela assay medium (99% complete Hela culture medium, 1% Pen/Strep) with 20 mL medium/vial of cells. The cells were spun down at 250 g in a table top centrifuge for 5 min and suspended in same volume of Hela assay medium. The cells were then counted and adjusted to a density of 2×10^5 cells/ml in Hela assay medium. Sterile L-tryptophan were added to the cells with final concentration of 300 uM L-tryptophan. A small aliquot (2 mL/plate) of Hela cells were set aside and were not treated with IFNγ, to serve as the Max-E control. The rest of Hela cells were added with sterile IFNγ (Cat #285-IF, R & D systems) with a final concentration of 100 ng/mL.
Hela cells with and without IFNγ were dispensed to the respective wells of 384-well assay plates containing the compounds. The plates were incubated for about 48 hours at a 37° C., 5% CO2 incubator. Afterwards, 12 μL of 0.5 M methyl isonipecotate in dimethyl sulfoxide were added into each well and the plates were sealed and incubated at 37° C. without CO2 overnight. The plates were centrifuged for 1 min at 200×g. The resulting fluorescence was measured in a Spectramax plate reader (Molecular Devices) with a 400 nm excitation filter and a 510 nm emission filter.
The fluorescence intensity of each well was corrected for the background observed in wells with non-IFNγ-treated cells and was expressed as a fraction of the intensity observed in wells of IFNγ-treated cells and DMSO only. Potencies were calculated by linear least squares fit to the four parameter logistic IC50 equation.

HIS-tagged IDO1 protein, sequence (P14902 whole entry): as above

Row | SMILES | IC50 [1] [nM] | IC50 [2] [nM]
1 | C[C@H](CO)NC(=O)COc1nonc1/C(=N/O)N[C@H]1Cc2ccc(F)cc21 [Example 8, 2-[(4-{N-[(7S)-4-fluorobicyclo[4.2.0]octa-1,3,5-trien-7-yl]-N′-hydroxycarbamimidoyl}-1,2,5-oxadiazol-3-yl)oxy]-N-[(2R)-1-hydroxypropan-2-yl]acetamide] | 110 | 416
2 | C[C@H](O)CNC(=O)COc1nonc1/C(=N/O)N[C@H]1Cc2ccc(F)cc21 [Example 9, 2-[(4-{N-[(7S)-4-fluorobicyclo[4.2.0]octa-1,3,5-trien-7-yl]-N′-hydroxycarbamimidoyl}-1,2,5-oxadiazol-3-yl)oxy]-N-[(2S)-2-hydroxypropyl]acetamide] | 413 | 624
3 | C[C@@H](O)CNC(=O)COc1nonc1/C(=N/O)N[C@H]1Cc2ccc(F)cc21 [Example 10, 2-[(4-{N-[(7S)-4-fluorobicyclo[4.2.0]octa-1,3,5-trien-7-yl]-N′-hydroxycarbamimidoyl}-1,2,5-oxadiazol-3-yl)oxy]-N-[(2R)-2-hydroxypropyl]acetamide] | 100 | 335
4 | O=C(COc1nonc1/C(=N/O)NC1Cc2ccc(F)cc21)NCC(O)CO (stereo not drawn) [Example 12, N-(2,3-dihydroxypropyl)-2-({4-[N-(4-fluorobicyclo[4.2.0]octa-1,3,5-trien-7-yl)-N′-hydroxycarbamimidoyl]-1,2,5-oxadiazol-3-yl}oxy)acetamide] | 700 | 920
5 | O=C(COc1nonc1/C(=N/O)N[C@H]1CCc2ccc(F)cc21)NCCO [Example 13, 2-[(4-{N-[(1S)-6-fluoro-2,3-dihydro-1H-inden-1-yl]-N′-hydroxycarbamimidoyl}-1,2,5-oxadiazol-3-yl)oxy]-N-(2-hydroxyethyl)acetamide] | 483 | 774
6 | CC(C)(O)CNC(=O)COc1nonc1/C(=N/O)NC1Cc2ccc(F)cc21 (stereo not drawn) [Example 14, 2-({4-[N-(4-fluorobicyclo[4.2.0]octa-1,3,5-trien-7-yl)-N′-hydroxycarbamimidoyl]-1,2,5-oxadiazol-3-yl}oxy)-N-(2-hydroxy-2-methylpropyl)acetamide] | 985 | 770
7 | O=C(COc1nonc1/C(=N/O)N[C@H]1Cc2ccc(F)cc21)NC[C@@H](O)CO [Example 16, N-[(2R)-2,3-dihydroxypropyl]-2-[(4-{N-[(7S)-4-fluorobicyclo[4.2.0]octa-1,3,5-trien-7-yl]-N′-hydroxycarbamimidoyl}-1,2,5-oxadiazol-3-yl)oxy]acetamide] | 447 | 509
8 | CC(C)(Oc1nonc1/C(=N/O)NC1Cc2ccc(F)cc21)C(=O)NCCO (stereo not drawn) [Example 19, 2-({4-[N-(4-fluorobicyclo[4.2.0]octa-1,3,5-trien-7-yl)-N′-hydroxycarbamimidoyl]-1,2,5-oxadiazol-3-yl}oxy)-N-(2-hydroxyethyl)-2-methylpropanamide] | 7790 | 2850
9 | O/N=C(\N[C@H]1Cc2ccc(F)cc21)c1nonc1OC1CNC1 [Example 21, 4-[(azetidin-3-yl)oxy]-N-[(7S)-4-fluorobicyclo[4.2.0]octa-1,3,5-trien-7-yl]-N′-hydroxy-1,2,5-oxadiazole-3-carboximidamide] | 224 | 1780
10 | O=C(NCCOc1nonc1/C(=N/O)N[C@H]1Cc2ccc(F)cc21)c1nc[nH]n1 [Example 22, N-{2-[(4-{N-[(7S)-4-fluorobicyclo[4.2.0]octa-1,3,5-trien-7-yl]-N′-hydroxycarbamimidoyl}-1,2,5-oxadiazol-3-yl)oxy]ethyl}-1H-1,2,4-triazole-3-carboxamide] | 264 | 308
11 | CC(Oc1nonc1/C(=N/O)NC1Cc2ccc(F)cc21)C(=O)NCCO (stereo not drawn) [Example 23, 2-({4-[N-(4-fluorobicyclo[4.2.0]octa-1,3,5-trien-7-yl)-N′-hydroxycarbamimidoyl]-1,2,5-oxadiazol-3-yl}oxy)-N-(2-hydroxyethyl)propanamide] | 1670 | 1930
12 | NS(=O)(=O)NCCOc1nonc1/C(=N/O)N[C@H]1CCc2ccc(F)cc21 [Example 24, N-[(1S)-6-fluoro-2,3-dihydro-1H-inden-1-yl]-N′-hydroxy-4-[2-(sulfamoylamino)ethoxy]-1,2,5-oxadiazole-3-carboximidamide] | 421 | 1300
13 | O=C(CO)N1CC[C@H](Oc2nonc2/C(=N/O)N[C@H]2Cc3ccc(F)cc32)C1 [Example 25, N-[(7S)-4-fluorobicyclo[4.2.0]octa-1,3,5-trien-7-yl]-N′-hydroxy-4-{[(3S)-1-(hydroxyacetyl)pyrrolidin-3-yl]oxy}-1,2,5-oxadiazole-3-carboximidamide] | 1200 | 2000
14 | O/N=C(\N[C@H]1Cc2ccc(F)cc21)c1nonc1OCCn1cnnc1 [Example 28, N-[(7S)-4-fluorobicyclo[4.2.0]octa-1,3,5-trien-7-yl]-N′-hydroxy-4-[2-(4H-1,2,4-triazol-4-yl)ethoxy]-1,2,5-oxadiazole-3-carboximidamide] | 396 | 561

Next, values leading:

Row | IC50 [1] [nM] | IC50 [2] [nM] | SMILES
15 | 479 | 685 | NC(=O)N(CCO)CCOc1nonc1/C(=N/O)NC1Cc2ccc(F)cc21 (stereo not drawn) [Example 15, 4-{2-[carbamoyl(2-hydroxyethyl)amino]ethoxy}-N-(4-fluorobicyclo[4.2.0]octa-1,3,5-trien-7-yl)-N′-hydroxy-1,2,5-oxadiazole-3-carboximidamide]
16 | 186 | 220 | NC(=O)COc1nonc1/C(=N/O)N[C@H]1Cc2ccc(F)cc21 [Example 17, 2-[(4-{N-[(7S)-4-fluorobicyclo[4.2.0]octa-1,3,5-trien-7-yl]-N′-hydroxycarbamimidoyl}-1,2,5-oxadiazol-3-yl)oxy]acetamide]
17 | 74.7 | 301 | NC(=O)NCCCOc1nonc1/C(=N/O)N[C@H]1Cc2ccc(F)cc21 [Example 18, 4-[3-(carbamoylamino)propoxy]-N-[(7S)-4-fluorobicyclo[4.2.0]octa-1,3,5-trien-7-yl]-N′-hydroxy-1,2,5-oxadiazole-3-carboximidamide]
18 | 302 | 2360 | O=C(NCCOc1nonc1/C(=N/O)N[C@H]1Cc2ccc(F)cc21)[C@H](O)CO [Example 20, (2R)-N-{2-[(4-{N-[(7S)-4-fluorobicyclo[4.2.0]octa-1,3,5-trien-7-yl]-N′-hydroxycarbamimidoyl}-1,2,5-oxadiazol-3-yl)oxy]ethyl}-2,3-dihydroxypropanamide]
19 | 214 | 284 | O=C(NCCOc1nonc1/C(=N/O)N[C@H]1Cc2ccc(F)cc21)[C@@H](O)CO [Example 26, (2S)-N-{2-[(4-{N-[(7S)-4-fluorobicyclo[4.2.0]octa-1,3,5-trien-7-yl]-N′-hydroxycarbamimidoyl}-1,2,5-oxadiazol-3-yl)oxy]ethyl}-2,3-dihydroxypropanamide]
20 | 1480 | 1330 | CS(=O)(=O)CCOc1nonc1/C(=N/O)N[C@H]1Cc2ccc(F)cc21 [Example 27, N-[(7S)-4-fluorobicyclo[4.2.0]octa-1,3,5-trien-7-yl]-N′-hydroxy-4-[2-(methylsulfonyl)ethoxy]-1,2,5-oxadiazole-3-carboximidamide]
21 | 73.1 | 147 | NS(=O)(=O)CCCOc1nonc1/C(=N/O)N[C@H]1Cc2ccc(F)cc21 [Example 29, N-[(7S)-4-fluorobicyclo[4.2.0]octa-1,3,5-trien-7-yl]-N′-hydroxy-4-(3-sulfamoylpropoxy)-1,2,5-oxadiazole-3-carboximidamide]
